Measurements as given in patent US6573041B2, “Neuronal cell model and methods of use thereof” (priority 2000, dated 2003).

System: HSV-2 strain 333 quiescently infected ND-PC12 (QIF-PC12) cell cultures
Test: Induction of HSV-2 from QIF-PC12 cell cultures; virus production by direct plaque assay of supernatants on Vero cells
Format: cell-based
Details: for cultures activating virus in response to forskolin: Vero cocultivation day 12 p.i.
Experimental: For morphologic differentiation, PC12 cells were maintained in RPMI 1640 supplemented 0.1% bovine serum albumin, fraction V (BSA) and 50 ng/ml of 2.5S mouse nerve growth nerve factor (NGF) (Becton Dickinson) (maintenance media) throughout the studies, unless indicated, beginning on the day of plating. PC12 were plated, following two rinses with RPMI 1640 containing 0.1% BSA and dissociation by passage through a 22-gauge needle, in 12-well tissue culture dishes (Bector Dickinson Labware, Franklin Lakes, N.J., USA) coated with rat tail collagen type 1 (Bector Dickinson) at 1.1×10^5 cells/well in maintenance media. Collagen was applied as recommended by the supplier. Following 4 days of differentiation in maintenance media, cultures were maintained in RPMI 1640 supplemented with 10% horse serum (heat-inactivated) and 5% FBS, and 50 ng/ml NGF for 2 days. The following day cultures received maintenance media supplemented with 100 μM acycloguanosine (ACV) when indicated, purchased from Sigma (St. Louis, Mo., USA). Morphologic differentiation was confirmed by microscopic visualization of dendritic processes. Media was changed every 2 to 3 days unless indicated.
ND-PC12 cells were infected in a volume of 0.4 ml/well in 12-well plates without agitation at the indicated multiplicity of infection (MOI) overnight at 37° C. When used, ACV was maintained in the medium from 1 day prior to infection 8 days post-infection (p.i.). After ACV withdrawal, a quiescent state (i.e., free of detectable infectious virus in culture supernatants) was maintained for at least 7 days prior to induction. At the indicated times, Vero cells were trypsinized, washed twice with RPMI and introduced into the QIF-PC12 cell cultures at a ratio of 1:1 in maintenance media.
HSV QIF-PC12 cells, that were free of detectable infectious virus, were subjected to heat stress (43° C. for 3 h in an incubator), or maintenance media supplemented with or without 50 μM forskolin (Sigma) as previously described (Danaher et al, 1999a,b). Virus production was determined using 25% volume of supernatants from infected PC12 cultures in a direct plaque assay (DPA) on monolayers of Vero cells as previously described (Miller and Smith, 1991). Cultures were subsequently replenished with fresh maintenance media.
Based on these findings, forskolin and HS induced HSV-2 reactivation from QIF-PC12 cell cultures that were cocultivated with Vero cells was analyzed in more detail. QIF-PC12 cell cultures were established with strain 333 at MOI of 10 as described in the Materials and methods using transient ACV treatment. Cultures were cocultivated with Vero cells at a ratio of 1:1 three days before induction with forskolin or HS (day 15 p.i.). Virus production was monitored from day 10 through 23 p.i. Prior to induction, HSV-2 was detected infrequently (2.8%; 1/36) in cocultivated cultures. The 35 cultures that were not shedding virus were used in induction assays. Following induction treatment (FIG. 1), virus was detected in 90 to 100% of HS and forskolin induced cocultivated cultures, and 8.3% (1/12) of mock-induced cocultivated cultures.
To assess this, QIF-PC12 cell cultures were established with HSV-2 as described above. Cultures were cocultivated with Vero cells at a ratio of 1:1 within 10 days of AC withdrawal. Induction was performed with forskolin on day 30 p.i. Cultures were monitored for virus production using culture supernatants. Over the 3 week period between ACV withdrawal and induction, 71% (17/24) of the HSV-2 infected culture maintained quiescence. HSV-2 was produced from 100% (8/8) of forskolin induced cultures and 0% (0/9) of mock induced cultures by 8 days post-induction (data not shown).
Next, it was determined whether the efficiency of HSV-2 activation from quiescence was MOI-dependent. QIF-PC12 cell cultures were established with HSV-2 strain 333 at MOIs of 3 and 30 and cocultivated with Vero cells at a ratio of 1:1 on day 12 p.i. as above. […]

C=C[C@@]1(C)CC(=O)[C@]2(O)[C@@]3(C)[C@@H](O)CCC(C)(C)[C@@H]3[C@H](O)[C@H](OC(C)=O)[C@@]2(C)O1 [forskolin]
cultures activating virus in response to forskolin (50 μM forskolin day 15 p.i., MOI of 3, established with ACV, 9/11 by day 7): 82%
cultures activating virus in response to forskolin (50 μM forskolin day 15 p.i., MOI of 30, established with ACV, 12/12 by day 6): 100%
cultures producing HSV-2 after forskolin induction (established without ACV, MOI of 3, 50 μM forskolin day 15 p.i., by day 6 post-induction, 10/11 cultures): 91%
cultures from which virus was recovered after forskolin induction (established without ACV, MOI of 3, previously mock induced non-productive cultures, forskolin induced on day 30 p.i., 4/4 cultures): 100%
forskolin induced reactivation (cultures) (established without ACV, MOI of 30, 50 μM forskolin day 15 p.i., 9/10 cultures): 90%
cultures producing HSV-2 after forskolin induction (forskolin on day 30 p.i., established with ACV, Vero cocultivation, by 8 days post-induction, 8/8 cultures): 100%
